Measured values as given in patent EP4137133A1, “CRYSTALLINE FORM OF AVACOPAN” (Sandoz AG, priority 2021, dated 2023).

Key:
[1] = Powder dissolution of crystalline avacopan forms in 0.1N HCl; type: physicochemical; settings: 37°C; for Concentration: HPLC 243 nm
Experimental: Powder dissolution experiments were carried out in 0.1N HCl at 37°C for the crystalline form of avacopan disclosed in WO 2021/092292 A1 and the crystalline Form HyA of avacopan of the present invention. Particle sizes of the forms were kept as similar as possible to allow for proper comparison. The respective concentrations were determined by HPLC at a wavelength of 243 nm.

[2] = Gravimetric moisture sorption (GMS); type: physicochemical; settings: 25 ± 0.1 °C
Experimental: Moisture sorption isotherms were recorded with an SPSx-1µ moisture sorption analyzer (ProUmid, Ulm) together with other samples. The measurement cycle was started at ambient relative humidity (RH) of 40%. RH was then decreased to 5% in 5% steps, followed by a further decrease to 3% and to 0%. […] Finally, RH was increased to ambient relative humidity of […] in 5% steps. The time per step was set to a minimum of 2 hours and a maximum of 6 hours. If an equilibrium condition with a constant mass of ± 0.01% within 1 hour was reached before the maximum time for all examined samples the sequential humidity step was applied before the maximum time of 6 hours. If no equilibrium was achieved the consecutive humidity step was applied after the maximum time of 6 hours. The temperature was 25 ± 0.1 °C.

Cc1ccc(NC(=O)[C@H]2CCCN(C(=O)c3c(C)cccc3F)[C@H]2c2ccc(NC3CCCC3)cc2)cc1C(F)(F)F [Crystalline Form of WO 2021/092292 A1, (2R,3S)-2-(4-(cyclopentylamino)phenyl)-1-(2-fluoro-6-methylbenzoyl)-N-(4-methyl-3-(trifluoromethyl)phenyl)piperidine-3-carboxamide, reference compound]
Concentration ([1]; time 0.25 h): 4000 ng/mL | Concentration ([1]; time 0.5 h): 6000 ng/mL | Concentration ([1]; time 0.75 h): 6000 ng/mL | Concentration ([1]; time 1 h): 7000 ng/mL | Concentration ([1]; time 1.25 h): 7000 ng/mL | Concentration ([1]; time 1.5 h): 8000 ng/mL | Concentration ([1]; time 1.75 h): 8000 ng/mL | Concentration ([1]; time 2 h): 8000 ng/mL

Cc1ccc(NC(=O)[C@H]2CCCN(C(=O)c3c(C)cccc3F)[C@H]2c2ccc(NC3CCCC3)cc2)cc1C(F)(F)F [Form HyA, (2R,3S)-2-(4-(cyclopentylamino)phenyl)-1-(2-fluoro-6-methylbenzoyl)-N-(4-methyl-3-(trifluoromethyl)phenyl)piperidine-3-carboxamide]
mass change (0-15% RH) ([2]; GMS, 0-15% RH): 2.2 w-% | mass change (0-90%RH) ([2]; GMS, 0-90% RH): 3.2 w-% | mass change (15-90%) ([2]; GMS, 15-90% RH): 1.0 w-% | hygroscopicity ([2]; GMS, range of 15-90% RH): slightly hygroscopic | mass change ([2]; GMS, range of 15-90% RH): 1.0% | water released ([2]; GMS, very dry conditions, below 15-0% RH): 2.2% | PXRD after the GMS experiment (physical stability) ([2]; after sorption/desorption cycles 0-90% RH): still shows the same PXRD | Concentration ([1]; time 0 h): 0 ng/mL | Concentration ([1]; time 0.25 h, listed as Form HyA of present invention): 72000 ng/mL | Concentration ([1]; time 0.5 h, listed as Form HyA of present invention): 68000 ng/mL | Concentration ([1]; time 0.75 h, listed as Form HyA of present invention): 60000 ng/mL | Concentration ([1]; time 1 h, listed as Form HyA of present invention): 52000 ng/mL | Concentration ([1]; time 1.25 h, listed as Form HyA of present invention): 43000 ng/mL | Concentration ([1]; time 1.5 h, listed as Form HyA of present invention): 40000 ng/mL | Concentration ([1]; time 1.75 h, listed as Form HyA of present invention): 36000 ng/mL | Concentration ([1]; time 2 h, listed as Form HyA of present invention): 35000 ng/mL | solubility in 0.1N HCl compared to the crystalline form of avacopan disclosed in WO 2021/092292 A1 ([1]; whole range from 15 minutes to 2 hours): significantly increased solubility
